These molecules were tested on HEK293 cells (assay: Preliminary screening as mRNA vectors, EGFP mRNA transfection of HEK293 cells). Conditions: EGFP mRNA 50 ng per well, 96-well plates; percentage of GFP fluorescent cells relative to total number of cells (Hoechst).
Format: cell-based
Outline: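 Screening format: EGFP mRNA transfection (50 ng/well) into HEK293 in 10% FBS-supplemented DMEM. Percent green fluorescent cells, normalised to Hoechst nuclear count, gave the value; Lipofectamine2000 was the reference transfectant.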

Q: With `CCCCCCCCCCCCCCCNc1nc(NCCN2CCN(C)CC2)nc(SCCCCCCC)n1` [Compound D5S7N15] as the molecule, how does the “Absolute mRNA transfection efficiency in HEK293 cells” value (from here on “Absolute mRNA transfection efficiency”) read?
A: 38.5%

Q: With `CCCCCCCCCCCCCCCSc1nc(NCCCCCCC)nc(NCCN2CCCC2)n1` [Compound D3S15N7] as the molecule, how does the “Absolute mRNA transfection efficiency” value read?
A: 80.8%

Q: How did the “Absolute mRNA transfection efficiency” value turn out when `CCCCCCCCCCCCCCCCSc1nc(NCCCCCCCCCCC)nc(NCCN2CCOCC2)n1` [Compound D2S16N11] was run?
A: 4.1%

Q: How did the “Absolute mRNA transfection efficiency” value turn out when `CCCCCCCCCCCNc1nc(NCCCN2CCN(C)CC2)nc(SCCCCCCCCCC)n1` [Compound D9S10N11] was run?
A: 11.3%

Q: `CCCCCCCNc1nc(NCC2CCN(C)CC2)nc(SCCCCCCC)n1` [Compound D10S7N7] was tested. Which “Absolute mRNA transfection efficiency” value did it give?
A: 0.9%

Q: Which “Absolute mRNA transfection efficiency” value does the source give for `CCCCCCCCCCCCCCSc1nc(NCCN2CCCCC2)nc(SCCCCCC)n1` [Compound D4S6S14] here?
A: 5.3%

Q: For `CCCCCCCCCCCCCCCSc1nc(NCCCN2CCOCC2)nc(SCCCCCCC)n1` [Compound D8S7S15], which “Absolute mRNA transfection efficiency” value is on record?
A: 25.2%

Q: With `CCCCCCCCCCCCCCCSc1nc(NCCCCCCCCC)nc(NCCN2CCOCC2)n1` [Compound D2S15N9] as the molecule, how does the “Absolute mRNA transfection efficiency” value read?
A: 1.1%

Q: `CCCCCCCCCCCCSc1nc(NCCCN(C)C)nc(SCCCCCCC)n1` [Compound D6S7S12] was tested. Which “Absolute mRNA transfection efficiency” value did it give?
A: 93.8%

Q: `CCCCCCCCCCCCCCCSc1nc(NCCCCCCCCCCC)nc(NCCN2CCOCC2)n1` [Compound D2S15N11] was tested. Which “Absolute mRNA transfection efficiency” value did it give?
A: 3.3%

Q: How did the “Absolute mRNA transfection efficiency” value turn out when `CCCCCCCCCCCCSc1nc(NCCCCCCCCC)nc(NCC2CCN(C)CC2)n1` [Compound D10S12N9] was run?
A: 17.5%

Q: How did the “Absolute mRNA transfection efficiency” value turn out when `CCCCCCCCCCCCCCCCCCSc1nc(NCCCCCCCCCCCCCCC)nc(NCCCN(C)C)n1` [Compound D6S18N15] was run?
A: 0.0%

Q: How did the “Absolute mRNA transfection efficiency” value turn out when `CCCCCCCCCCCSc1nc(NCCCCCC)nc(NCCN(C)C)n1` [Compound D1S11N6] was run?
A: 4.4%

Q: Which “Absolute mRNA transfection efficiency” value does the source give for `CCCCCCCCCCCCCCCCCCNc1nc(NCCN2CCCC2)nc(SCCCCCCCCCCCCCCCCCC)n1` [Compound D3S18N18] here?
A: 0.1%

Q: For `CCCCCCCCCCCSc1nc(NCCCN(C)C)nc(SCCCCCCCC)n1` [Compound D6S8S11], which “Absolute mRNA transfection efficiency” value is on record?
A: 92.3%

Q: With `CCCCCCCCCCCNc1nc(NCCN2CCCC2)nc(SCCCCCCCCCCC)n1` [Compound D3S11N11] as the molecule, how does the “Absolute mRNA transfection efficiency” value read?
A: 33.5%

Q: Which “Absolute mRNA transfection efficiency” value does the source give for `CCCCCCCCCCCCSc1nc(NCCCCCCCC)nc(NCCCN(C)C)n1` [Compound D6S12N8] here?
A: 30.5%

Q: How did the “Absolute mRNA transfection efficiency” value turn out when `CCCCCCCCCCCNc1nc(NCCN2CCOCC2)nc(SCCCCCCC)n1` [Compound D2S7N11] was run?
A: 16.0%

Q: How did the “Absolute mRNA transfection efficiency” value turn out when `CCCCCCCCCCCCCCCCCCNc1nc(NCCN(CC)CC)nc(SCCCCCCCCCCCCCCCC)n1` [Compound D7S16N18] was run?
A: 1.5%

Q: How did the “Absolute mRNA transfection efficiency” value turn out when `CCCCCCCCCCCCNc1nc(NCCN2CCOCC2)nc(SCCCCCCCCCC)n1` [Compound D2S10N12] was run?
A: 1.5%

Q: Which “Absolute mRNA transfection efficiency” value does the source give for `CCCCCCCCCCCCCCSc1nc(NCCCCCCCC)nc(NCCN2CCN(C)CC2)n1` [Compound D5S14N8] here?
A: 65.6%

Q: With `CCCCCCCCCCCCNc1nc(NCCCN2CCOCC2)nc(SCCCCCCCCCC)n1` [Compound D8S10N12] as the molecule, how does the “Absolute mRNA transfection efficiency” value read?
A: 0.1%

Q: With `CCCCCCCCCCCCCCSc1nc(NCCCCCCCCCCCC)nc(NCCCN2CCOCC2)n1` [Compound D8S14N12] as the molecule, how does the “Absolute mRNA transfection efficiency” value read?
A: 1.3%

Q: For `CCCCCCCCCCCCCCCCCCNc1nc(NCCN(CC)CC)nc(SCCCCCCCCCCC)n1` [Compound D7S11N18], which “Absolute mRNA transfection efficiency” value is on record?
A: 10.8%

Q: `CCCCCCCCCCCCCCCCSc1nc(NCCN(CC)CC)nc(SCCCCCCC)n1` [Compound D7S7S16] was tested. Which “Absolute mRNA transfection efficiency” value did it give?
A: 10.7%

Q: Which “Absolute mRNA transfection efficiency” value does the source give for `CCCCCCCCCCCCCCCCCCNc1nc(NCCCN2CCOCC2)nc(SCCCCCCCCCCC)n1` [Compound D8S11N18] here?
A: 0.6%

Q: For `CCCCCCCCCSc1nc(NCCCCCCC)nc(NCCCN(C)C)n1` [Compound D6S9N7], which “Absolute mRNA transfection efficiency” value is on record?
A: 1.2%

Q: How did the “Absolute mRNA transfection efficiency” value turn out when `CCCCCCCCCCCCCCCCNc1nc(NCCN2CCOCC2)nc(SCCCCCCCCCCCCCC)n1` [Compound D2S14N16] was run?
A: 0.1%

Q: `CCCCCCCCCCCCCCCSc1nc(NCCCCCCCC)nc(NCCCN2CCOCC2)n1` [Compound D8S15N8] was tested. Which “Absolute mRNA transfection efficiency” value did it give?
A: 2.9%

Q: For `CCCCCCCCCCCCCNc1nc(NCCN2CCCCC2)nc(SCCCCCC)n1` [Compound D4S6N13], which “Absolute mRNA transfection efficiency” value is on record?
A: 2.1%

Q: For `CCCCCCCCCCSc1nc(NCCCCCCCCC)nc(NCCN2CCCCC2)n1` [Compound D4S10N9], which “Absolute mRNA transfection efficiency” value is on record?
A: 0.2%

Q: With `CCCCCCCCCCCSc1nc(NCCCCCCCC)nc(NCCN2CCCC2)n1` [Compound D3S11N8] as the molecule, how does the “Absolute mRNA transfection efficiency” value read?
A: 31.8%

Q: With `CCCCCCCCCCCCSc1nc(NCCCCCCC)nc(NCCN2CCCCC2)n1` [Compound D4S12N7] as the molecule, how does the “Absolute mRNA transfection efficiency” value read?
A: 0.5%

Q: With `CCCCCCCCCSc1nc(NCCCCCCC)nc(NCCN2CCCCC2)n1` [Compound D4S9N7] as the molecule, how does the “Absolute mRNA transfection efficiency” value read?
A: 3.0%

Q: With `CCCCCCCCCCCSc1nc(NCC2CCN(C)CC2)nc(SCCCCCCCC)n1` [Compound D10S8S11] as the molecule, how does the “Absolute mRNA transfection efficiency” value read?
A: 67.0%

Q: How did the “Absolute mRNA transfection efficiency” value turn out when `CCCCCCCCCCCCCNc1nc(NCCCN2CCN(C)CC2)nc(SCCCCCCCCCC)n1` [Compound D9S10N13] was run?
A: 2.7%

Q: `CCCCCCCCCNc1nc(NCCCN2CCN(C)CC2)nc(SCCCCCCCC)n1` [Compound D9S8N9] was tested. Which “Absolute mRNA transfection efficiency” value did it give?
A: 57.0%

Q: For `CCCCCCCCCCCCCCCCNc1nc(NCCN2CCCC2)nc(SCCCCCCCCCCCCCC)n1` [Compound D3S14N16], which “Absolute mRNA transfection efficiency” value is on record?
A: 1.2%

Q: How did the “Absolute mRNA transfection efficiency” value turn out when `CCCCCCCCCCCCCCSc1nc(NCCN2CCCC2)nc(SCCCCCCC)n1` [Compound D3S7S14] was run?
A: 14.6%

Q: `CCCCCCCCCCCCCCCSc1nc(NCC2CCN(C)CC2)nc(N(CCCCCCCCCCCC)CCCCCCCCCCCC)n1` [D10S15^2N12] was tested. Which “Absolute mRNA transfection efficiency” value did it give?
A: 14.3%

Q: How did the “Absolute mRNA transfection efficiency” value turn out when `CCCCCCCCCCCCCCSc1nc(NCCCCCC)nc(NCCN2CCCCC2)n1` [Compound D4S14N6] was run?
A: 3.0%

Q: `CCCCCCCCCCCSc1nc(NCCCCCC)nc(NCCN2CCN(C)CC2)n1` [Compound D5S11N6] was tested. Which “Absolute mRNA transfection efficiency” value did it give?
A: 26.9%

Q: For `CCCCCCCCCCCCCCCNc1nc(NCCN2CCN(C)CC2)nc(SCCCCCCCCCCCC)n1` [Compound D5S12N15], which “Absolute mRNA transfection efficiency” value is on record?
A: 0.8%

Q: Which “Absolute mRNA transfection efficiency” value does the source give for `CCCCCCCCCCCSc1nc(NCCCN2CCOCC2)nc(SCCCCCCC)n1` [Compound D8S7S11] here?
A: 23.1%

Q: For `CCCCCCCCCCCCCCCCCCNc1nc(NCCN(C)C)nc(SCCCCCCCC)n1` [Compound D1S8N18], which “Absolute mRNA transfection efficiency” value is on record?
A: 19.3%

Q: With `CCCCCCCCCCCCN(CCCCCCCCCCCC)c1nc(NCCCN(C)C)nc(SCCCCCCCC)n1` [D6S8^2N12] as the molecule, how does the “Absolute mRNA transfection efficiency” value read?
A: 1.5%

Q: `CCCCCCCCNc1nc(NCCN(CC)CC)nc(SCCCCCCCC)n1` [Compound D7S8N8] was tested. Which “Absolute mRNA transfection efficiency” value did it give?
A: 2.5%

Q: With `CCCCCCCCCCCCCCCCCCSc1nc(NCCCCCCCCCCC)nc(NCCN2CCCCC2)n1` [Compound D4S18N11] as the molecule, how does the “Absolute mRNA transfection efficiency” value read?
A: 0.9%

Q: For `CCCCCCCCCCCCCCCCCCNc1nc(NCCN2CCN(C)CC2)nc(SCCCCCCCCCCCCCC)n1` [Compound D5S14N18], which “Absolute mRNA transfection efficiency” value is on record?
A: 0.6%

Q: For `CCCCCCCCCCCCCCCCSc1nc(NCCN2CCCCC2)nc(SCCCCCC)n1` [Compound D4S6S16], which “Absolute mRNA transfection efficiency” value is on record?
A: 5.1%

Q: For `CCCCCCCCCSc1nc(NCCCCCCCC)nc(NCC2CCN(C)CC2)n1` [Compound D10S9N8], which “Absolute mRNA transfection efficiency” value is on record?
A: 16.3%

Q: How did the “Absolute mRNA transfection efficiency” value turn out when `CCCCCCCCCCCCCCCSc1nc(NCCCN2CCN(C)CC2)nc(N(CCCCCCCCCCCC)CCCCCCCCCCCC)n1` [D9S15^2N12] was run?
A: 0.4%

Q: With `CCCCCCCCCCCCCCCCNc1nc(NCCCN(C)C)nc(SCCCCCCC)n1` [Compound D6S7N16] as the molecule, how does the “Absolute mRNA transfection efficiency” value read?
A: 44.8%

Q: For `CCCCCCCCCSc1nc(NCCN(C)C)nc(SCCCCCCC)n1` [Compound D1S7S9], which “Absolute mRNA transfection efficiency” value is on record?
A: 8.1%

Q: With `CCCCCCCCCCCCN(CCCCCCCCCCCC)c1nc(NCCN2CCN(C)CC2)nc(SCCCCCCC)n1` [D5S7^2N12] as the molecule, how does the “Absolute mRNA transfection efficiency” value read?
A: 0.2%

Q: With `CCCCCCCCCCCCCCCCCCSc1nc(NCC2CCN(C)CC2)nc(N(CCCCCCCCCCCC)CCCCCCCCCCCC)n1` [D10S18^2N12] as the molecule, how does the “Absolute mRNA transfection efficiency” value read?
A: 0.0%

Q: With `CCCCCCCCCCCCCCCCCCSc1nc(NCCCCCCCCC)nc(NCCCN(C)C)n1` [Compound D6S18N9] as the molecule, how does the “Absolute mRNA transfection efficiency” value read?
A: 40.1%

Q: With `CCCCCCCCCCCCCCCCSc1nc(NCCCCCC)nc(NCCCN2CCN(C)CC2)n1` [Compound D9S16N6] as the molecule, how does the “Absolute mRNA transfection efficiency” value read?
A: 85.7%

Q: How did the “Absolute mRNA transfection efficiency” value turn out when `CCCCCCCCCCCCSc1nc(NCCN2CCOCC2)nc(N(CCCCCCCCCCCC)CCCCCCCCCCCC)n1` [D2S12^2N12] was run?
A: 0.1%

Q: Which “Absolute mRNA transfection efficiency” value does the source give for `CCCCCCCCCCCCCCCCCCSc1nc(NCCCCCCCCCCC)nc(NCC2CCN(C)CC2)n1` [Compound D10S18N11] here?
A: 4.5%

Q: With `CCCCCCCCCCCCCCCSc1nc(NCCCCCCCCCCCCC)nc(NCCN2CCOCC2)n1` [Compound D2S15N13] as the molecule, how does the “Absolute mRNA transfection efficiency” value read?
A: 0.1%

Q: For `CCCCCCCCSc1nc(NCCN2CCCCC2)nc(SCCCCCCCC)n1` [Compound D4S8S8], which “Absolute mRNA transfection efficiency” value is on record?
A: 9.9%

Q: Which “Absolute mRNA transfection efficiency” value does the source give for `CCCCCCCCCCCCCCCCSc1nc(NCCCCCCCC)nc(NCC2CCN(C)CC2)n1` [Compound D10S16N8] here?
A: 70.4%

Q: For `CCCCCCCCCCCCCCCCCCSc1nc(NCCCCCCCC)nc(NCCCN2CCN(C)CC2)n1` [Compound D9S18N8], which “Absolute mRNA transfection efficiency” value is on record?
A: 25.8%

Q: Which “Absolute mRNA transfection efficiency” value does the source give for `CCCCCCCCCCCCCCCNc1nc(NCCN2CCCCC2)nc(SCCCCCC)n1` [Compound D4S6N15] here?
A: 0.4%

Q: With `CCCCCCCCCCSc1nc(NCCCCCCCC)nc(NCCN2CCCCC2)n1` [Compound D4S10N8] as the molecule, how does the “Absolute mRNA transfection efficiency” value read?
A: 0.1%
